In ChEMBL document CHEMBL4699395, “Synthesis and evaluation of novel 2,4-disubstituted arylthiazoles against T. brucei” (RSC Med Chem, 2020):

Tests used:
[1] = Selectivity index, ratio of IC50 for rat L6 cells assessed as cell growth inhibition incubated for 6 days by Alamar blue assay to IC50 for Trypanosoma brucei 427 bloodstream form assessed as parasite growth inhibition incubated for 48 hrs by Alamar blue assay; details: L6 cells (versus Trypanosoma brucei 427 bloodstream form)
Trypanosoma brucei = assay: Antitrypanosomal activity against Trypanosoma brucei 427 bloodstream form assessed as concentration required to inhibit 50% parasite growth incubated for 48 hrs by Alamar blue assay; format: functional, organism-based; details: Trypanosoma brucei, 427, 48 h

| Compound | selectivity ratio at 48 h [1] | IC50 (Trypanosoma brucei) [µM] |
| --- | --- | --- |
| NCc1nc(-c2ccc(C34CC5CC(CC(C5)C3)C4)cc2)cs1 | < 1 | – |
| N=C(N)Nc1nc(-c2ccc(C34CC5CC(CC(C5)C3)C4)cc2)cs1 | – | 10 |
